The subject of one data set is normal human melanocytes. Nature of the data set: Depigmenting activity: reduction of melanin production in normal human melanocytes in vitro. Particulars: Melanocyte, 72 h, 72 hours incubation, maximum concentration tested 200 μM, read-out: IC50 (concentration at which a 50% decrease in melanin synthesis is achieved). The class given is cell-based. As for the experimental part:
The measurement of the depigmenting activity (reduction of melanin production) of compounds of formula (I) was performed by assaying normal human melanocytes in vitro as follows.
First, normal human melanocytes are cultured and distributed in a multiwell plate. After 24 hours, the culture medium was replaced with a medium containing the compounds of formula (I) to be evaluated. The cells were incubated 72 hours before measurement of the final optical density, which measures the amount of melanin produced by the melanocytes. A dose effect was performed using a wide concentration range of the compounds evaluated. Thus, by making the concentrations and the melanin measurements correspond, it was possible to determine an IC50 in μM: concentration at which a 50% decrease in melanin synthesis is achieved.
Various test campaigns were conducted and the test results are collated in the tables below.

Data set [1] concerns coculture of keratinocytes and melanocytes. Nature of the data set: Coculture experiment: melanogenesis-modulating effect and cytotoxicity. Format: cell-based. The conditions noted are these: for IC50: melanin optical density, read-out: IC50 (concentration for which 50% of the melanin synthesis is inhibited). How it is done: The melanogenesis-modulating effect of compound D was measured according to the method described in patent FR-A-2734825, and also in the article by R. Schmidt, P. Krien and M. Régnier, Anal. Biochem., 235(2), 113-18, 1996. This test is performed on a coculture of keratinocytes and melanocytes.
For the test compounds, the following were determined: • the cytotoxicity, • the inhibitory activity on melanin synthesis, by estimating the melanin optical density.
The IC50 values (concentration for which 50% of the melanin synthesis is inhibited) were determined.
The test was also performed with the compound 5-[(E)-2-(4-hydroxyphenyl)ethenyl]benzene-1,3-diol described in the prior art patent application JP01038009,

Setting [2] is: values marked *: different campaigns each time.
Where [3] appears, read: coculture of keratinocytes and melanocytes.

Like-named read-outs stand apart in the source and are kept apart here.

In the case of `CC(Cc1ncc[nH]1)c1ccc(O)cc1O` (stereo not shown) [Compound A, 4-[1-(1H-imidazol-2-yl)propan-2-yl]benzene-1,3-diol], the IC50 in the data set on normal human melanocytes (setting [2]) was found to be 3.7 µM.
For `CC(Cc1nccs1)c1ccc(O)cc1O` (stereo not shown) [Compound B, 4-[1-(1,3-thiazol-2-yl)propan-2-yl]benzene-1,3-diol], the IC50 in the data set on normal human melanocytes (melanin by optical density) came out at 5.9 µM; in the data set on normal human melanocytes (setting [2]), 1.07 µM.
In the case of `CC(Cc1nc2ccccc2[nH]1)c1ccc(O)cc1O` (stereo not shown) [Compound D, 4-[1-(1H-benzimidazol-2-yl)propan-2-yl]benzene-1,3-diol], the cytotoxicity result in data set [1] was “non-cytotoxic”. Further, the IC50 in data set [1] (setting [3]) stood at 1.38 µM; in the data set on normal human melanocytes (melanin by optical density), 3.7 µM; with normal human melanocytes (setting [2]) it was 6.7 µM.
With `Oc1ccc(/C=C/c2cc(O)cc(O)c2)cc1` [Compound of the prior art, 5-[(E)-2-(4-hydroxyphenyl)ethenyl]benzene-1,3-diol, reference compound], the cytotoxicity result in data set [1] (setting [3]) is “Non-cytotoxic”. For the same compound, the IC50 in data set [1] (setting [3]) is 2.77 µM; in the data set on normal human melanocytes (melanin by optical density), 8.18 µM.
